In brackets after ≈: the same amount, converted by molar mass.
Experiments:
Staphylococcus aureus [1] = experiment: in vivo antibiotic action in mice infected with Staphylococcus aureus; settings: single dose of 200 mg/kg
[2] = target: RNA polymerase of Escherichia coli (Escherichia coli, UniProt P0A8V2); experiment: inhibition of the RNA polymerase of Escherichia coli in vitro; type: biochemical; settings: not achieved even with 100 μg/ml
From the text: The antibiotic action is ascertained, for example, on the one hand in vitro by determining the mean effective concentration EC50 for the inhibition of the RNA polymerase of Escherichia coli and by determining the minimum inhibitory concentration MIC in a conventional plate test, and on the other hand in vivo, using infected mice and rats, by determining the ED50 (effective dose that ensures the survival of 50% of the experimental animals). There are used as micro-organisms for the present purpose especially Mycobacterium tuberculosis TB H37 Rv and Staphylococcus aureus. In the case of compounds having a lipid-reducing indication, an antibiotic activity is regarded as disadvantageous since it can result in the formation of strains of micro-organisms that are resistant to antibiotics, especially when the compounds are administered over a prolonged period.

[3] = system: Mycobacterium tuberculosis TB H37 Rv and Staphylococcus aureus; experiment: antibiotic action, in vitro and in vivo tests as a whole
Staphylococcus aureus [4] = experiment: minimum inhibitory concentration in a conventional plate test; type: cell-based; settings: read-out: MIC for various pathogenic strains of Staphylococcus aureus
[5] = system: serum lipoproteins (VLDL, LDL and HDL); experiment: reduction of serum lipoproteins (VLDL, LDL and HDL) in genetically hypercholesterolaemic rats (procedure A) and normolipaemic rats (procedure B); type: in vivo; settings: repeated administration of 30 mg/kg daily, oral
Protocol: In contrast, the diacyl compounds of the present invention have, if at all, only a marginal antibiotic action.
Albino rats having a body weight of from 180 to 240 g and having free access to normal rat food and drinking water are used, Sprague Dawley derivatives of the strain Tif:RAI in procedure A and animals of the Wistar strain IVa-WI in procedure B. The test compound is administered orally in a polyethylene glycol solution (average molecular weight 400) to groups of from 8 to 10 rats, in procedure A once daily at 8 a.m. for three consecutive days and twice, at 8 a.m. and 4 p.m., on the fourth day, and in the case of procedure B, daily for 5 consecutive days. In experiment A the animals are sacrificed 16 hours, and in experiment B two hours, after the final administration by bleeding from the neck under anaesthesia with ether. The animals are given no food during the 16 hours before they are sacrificed. […] The serum lipoproteins are separated using an unltracentrifuge by means of 24-hour centrifugation at 78,000 g, 78,000 g and 109,000 g in salt solutions having densities of 1.006, 1.040 and 1.21, respectively, and are analysed enzymatically for their content of cholesterol and triglycerides using the test systems supplied, for example, by Miles (Lausanne, Switzerland) and Bohringer (Mannheim, Federal Republic of Germany).

RNA polymerase of Escherichia coli, sequence (P0A8V2 whole entry): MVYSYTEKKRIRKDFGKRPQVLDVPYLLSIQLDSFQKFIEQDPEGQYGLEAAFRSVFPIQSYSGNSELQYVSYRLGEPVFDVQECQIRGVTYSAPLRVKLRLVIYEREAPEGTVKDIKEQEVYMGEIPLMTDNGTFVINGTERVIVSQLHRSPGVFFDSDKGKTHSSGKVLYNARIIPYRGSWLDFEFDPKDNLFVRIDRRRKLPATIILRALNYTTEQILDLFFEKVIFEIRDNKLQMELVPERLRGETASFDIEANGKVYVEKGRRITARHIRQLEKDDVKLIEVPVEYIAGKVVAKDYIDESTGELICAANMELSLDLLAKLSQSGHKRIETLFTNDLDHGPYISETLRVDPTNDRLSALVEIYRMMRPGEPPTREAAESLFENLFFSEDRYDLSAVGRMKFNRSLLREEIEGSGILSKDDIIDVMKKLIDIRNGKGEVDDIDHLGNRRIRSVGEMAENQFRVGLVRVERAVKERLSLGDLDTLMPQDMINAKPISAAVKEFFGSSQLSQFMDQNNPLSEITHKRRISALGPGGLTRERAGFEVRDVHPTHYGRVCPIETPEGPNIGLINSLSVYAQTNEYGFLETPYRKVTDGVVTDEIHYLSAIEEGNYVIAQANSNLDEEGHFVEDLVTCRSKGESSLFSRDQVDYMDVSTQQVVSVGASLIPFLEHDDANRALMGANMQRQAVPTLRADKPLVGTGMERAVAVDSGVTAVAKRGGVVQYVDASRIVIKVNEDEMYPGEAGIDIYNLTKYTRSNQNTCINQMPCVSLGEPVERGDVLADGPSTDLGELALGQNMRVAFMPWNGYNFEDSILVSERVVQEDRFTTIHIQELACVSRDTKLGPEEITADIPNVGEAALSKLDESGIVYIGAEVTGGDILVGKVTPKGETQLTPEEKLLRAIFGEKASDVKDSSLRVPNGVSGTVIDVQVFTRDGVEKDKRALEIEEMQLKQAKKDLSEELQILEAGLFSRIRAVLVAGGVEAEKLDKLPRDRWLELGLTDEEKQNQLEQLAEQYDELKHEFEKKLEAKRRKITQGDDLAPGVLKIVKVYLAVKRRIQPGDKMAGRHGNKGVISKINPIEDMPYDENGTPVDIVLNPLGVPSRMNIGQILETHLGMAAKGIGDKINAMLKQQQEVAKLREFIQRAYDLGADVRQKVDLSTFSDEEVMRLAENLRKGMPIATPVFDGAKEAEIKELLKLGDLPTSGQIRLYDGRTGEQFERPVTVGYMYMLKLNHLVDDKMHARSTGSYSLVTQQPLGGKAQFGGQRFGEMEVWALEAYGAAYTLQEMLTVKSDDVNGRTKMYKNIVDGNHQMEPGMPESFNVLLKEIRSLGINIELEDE
RNA polymerase of Escherichia coli, sequence (P0A8T7 whole entry partner): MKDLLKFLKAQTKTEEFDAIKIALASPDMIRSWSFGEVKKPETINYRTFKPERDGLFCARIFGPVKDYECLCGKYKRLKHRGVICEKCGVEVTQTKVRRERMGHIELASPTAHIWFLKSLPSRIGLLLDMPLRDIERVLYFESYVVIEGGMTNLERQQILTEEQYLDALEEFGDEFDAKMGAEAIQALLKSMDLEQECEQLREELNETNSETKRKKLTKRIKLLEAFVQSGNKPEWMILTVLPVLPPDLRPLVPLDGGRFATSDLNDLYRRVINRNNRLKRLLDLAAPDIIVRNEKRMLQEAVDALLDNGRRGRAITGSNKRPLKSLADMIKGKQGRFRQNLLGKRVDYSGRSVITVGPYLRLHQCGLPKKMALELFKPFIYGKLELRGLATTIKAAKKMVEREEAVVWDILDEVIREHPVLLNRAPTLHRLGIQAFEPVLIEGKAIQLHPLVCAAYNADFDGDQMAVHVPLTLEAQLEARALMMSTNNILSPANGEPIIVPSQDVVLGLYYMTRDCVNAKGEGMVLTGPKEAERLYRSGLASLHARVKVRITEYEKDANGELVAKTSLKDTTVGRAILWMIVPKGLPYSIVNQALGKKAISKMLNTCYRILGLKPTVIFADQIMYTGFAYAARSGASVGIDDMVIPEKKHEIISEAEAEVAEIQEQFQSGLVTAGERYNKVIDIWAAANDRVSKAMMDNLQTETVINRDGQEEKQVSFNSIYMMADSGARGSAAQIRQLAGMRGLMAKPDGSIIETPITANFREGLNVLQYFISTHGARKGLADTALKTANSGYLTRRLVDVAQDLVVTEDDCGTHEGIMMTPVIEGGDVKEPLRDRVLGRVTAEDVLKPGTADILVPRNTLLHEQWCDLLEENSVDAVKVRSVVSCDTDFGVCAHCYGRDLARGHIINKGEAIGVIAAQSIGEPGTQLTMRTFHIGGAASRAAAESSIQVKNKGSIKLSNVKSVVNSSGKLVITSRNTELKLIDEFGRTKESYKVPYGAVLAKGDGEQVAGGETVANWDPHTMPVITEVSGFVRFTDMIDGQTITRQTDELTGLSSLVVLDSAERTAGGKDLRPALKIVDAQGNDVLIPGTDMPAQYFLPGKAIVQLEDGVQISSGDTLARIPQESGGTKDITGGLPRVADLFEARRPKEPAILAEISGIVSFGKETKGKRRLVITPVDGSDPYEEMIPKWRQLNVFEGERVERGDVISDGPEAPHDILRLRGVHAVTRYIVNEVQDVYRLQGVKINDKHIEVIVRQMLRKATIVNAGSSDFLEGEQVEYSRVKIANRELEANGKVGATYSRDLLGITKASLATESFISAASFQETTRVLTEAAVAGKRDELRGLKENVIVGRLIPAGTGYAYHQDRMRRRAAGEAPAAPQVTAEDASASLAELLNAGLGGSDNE
RNA polymerase of Escherichia coli, sequence (P0A7Z4 whole entry partner): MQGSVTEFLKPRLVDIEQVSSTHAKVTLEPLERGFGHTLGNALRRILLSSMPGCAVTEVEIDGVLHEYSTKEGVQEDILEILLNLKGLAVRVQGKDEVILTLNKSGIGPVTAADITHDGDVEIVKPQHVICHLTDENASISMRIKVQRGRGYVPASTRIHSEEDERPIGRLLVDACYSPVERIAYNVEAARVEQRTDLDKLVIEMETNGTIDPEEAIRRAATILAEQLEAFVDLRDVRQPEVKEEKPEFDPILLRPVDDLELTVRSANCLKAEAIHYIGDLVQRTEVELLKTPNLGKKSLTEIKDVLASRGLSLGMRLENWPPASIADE
RNA polymerase of Escherichia coli, sequence (P0A800 2-91 partner limits assumed): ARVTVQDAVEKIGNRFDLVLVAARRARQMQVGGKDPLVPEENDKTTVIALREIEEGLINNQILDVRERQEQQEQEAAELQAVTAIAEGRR

COC1C=COC2(C)Oc3c(C)c(OC(=O)C(C)(C)C)c4c(c3C2=O)C(=O)C(N2CCN(Cc3c(C)cc(C)cc3C)CC2)=C(C4=O)N(C(=O)C(C)(C)C)C(=O)C(C)=CC=CC(C)C(O)C(C)C(O)C(C)C(OC(C)=O)C1C (stereo not drawn) [8-O,N-dipivaloyl-3-[4-(2,4,6-trimethylbenzyl)-1-piperazinyl]-rifamycin S]
antibiotic activity in vivo (Staphylococcus aureus [1]): antibiotically inactive
EC50 [2]: > 92.6 µM
antibiotic activity ([3]; overall statement): practically no antibiotic activity
EC50 and MIC values relative to concentrations normally necessary for a corresponding effect ([3]; refers to RNA polymerase EC50 and Staphylococcus aureus MIC): approximately 1000 times
MIC (Staphylococcus aureus [4]): ~64 µg/mL (≈ 59.2 µM)
reduction in the "LDL fraction" [5]: 50-70%
